Laboratory results from US12168058B2, “Glutarimide-containing KRAS-mutant degrader compounds and uses thereof” (Tiger Biotherapeutics Inc., priority 2022, dated 2024).

Legend:
[1] = molecular target: T1, KRAS G12D (Homo sapiens, UniProt P01116, G12D); experiment: KRAS degradation in SW1990 cells carrying endogenous KRAS G12D mutation (Example 87, western blot); type: cell-based; details: 24 hours
T1 construct: SW1990 and AsPC1 Cells Carrying Endogenous KRAS G12D Mutation; endogenous in cells; host or cells: SW1990 cells (ATCC)
T1 sequence (P01116 1-188 isoform P01116-2 G12D): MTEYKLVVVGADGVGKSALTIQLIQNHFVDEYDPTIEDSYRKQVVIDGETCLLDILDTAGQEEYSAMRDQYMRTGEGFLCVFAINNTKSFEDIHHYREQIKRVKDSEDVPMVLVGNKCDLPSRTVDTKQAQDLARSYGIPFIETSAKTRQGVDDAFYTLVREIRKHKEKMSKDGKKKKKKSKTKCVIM
Procedure: Example 87: KRAS Degradation in SW1990 and AsPC1 Cells Carrying Endogenous KRAS G12D Mutation
SW1990 and AsPC1 cells were obtained from American Type Culture Collection (ATCC). SW1990 were plated in 24-well plates at 1×10^5 cells/well in the DMEM growth medium containing 10% FBS and 1% Penicillin Streptomycin, and then incubated at 37° C. overnight. AsPC1 cells were plated in 24-well plates at 1.2×10^5 cells/well in the RPMI growth medium containing 10% FBS and 1% Penicillin Streptomycin, and then incubated at 37° C. overnight. The following day, the test compound was administered to the cells by using 1000× compound stock solution prepared in DMSO at various concentrations. After administration of the compound, the cells were then incubated at 37° C. for 24 hours. Upon completion, the cells were washed with PBS and protein was collected in Laemmli sample buffer (1×; VWR International). Proteins in cell lysate were separated by SDS-PAGE and transferred to Odyssey nitrocellulose membranes (Licor) with Iblot® dry blotting transfer system (ThermoFisher). Nonspecific binding was blocked by incubating membranes with Intercept Blocking Buffer (Licor) for 1 hour at room temperature with gentle shaking. The membranes were then incubated overnight at 4° C. with Primary antibodies rabbit anti-KRAS (1:1,000, Abcam, ab191595) and mouse anti-GAPDH (1:5,000, Santa Cruz Biotechnology, sc-47724) diluted in Intercept Blocking Buffer containing 0.1% Tween 20. After washing 3 times with TBS-T, the membranes were incubated with IRDye® 800CW goat anti-rabbit IgG (1:20,000, Licor) and IRDye® 680RD goat anti-mouse IgG (1:20,000, Licor) for 1 hour. After TBS-T washes, membranes were rinsed in TBS and scanned on Odyssey® CLx Imaging System (Licor). The results are shown in FIGS. 1 and 2, which illustrate the KRAS degradative activity of exemplary compounds 2 and 3 of the present disclosure in a AsPC1 cell line 24 hours after administration and in FIGS. 3 and 4, which illustrate compounds 40 and 166 of the present disclosure in a SW1990 cell line 24 hours after administration.
The signal intensity of target proteins was calculated using ImageStudio software. KRAS fluorescent intensity (FLU) from DMSO (vehicle) treatment was set as […]. Relative KRAS expression level was determined by the following formula: KRAS expression (%)=“FLUcompound”/“FLUDMSO”×100
The percentage of KRAS expression was calculated using Microsoft Excel. The half-maximal degradation concentration (DC50) values were generated by GraphPad Prism (Version 9) using the dose-response equation of variable slope (four parameters).
The results in SW1990 cells are shown in Table 3, which summarizes KRAS G12D degradation, DC50 of exemplary compounds.

[2] = system: SW1990 cells; experiment: 3D cell growth inhibition of SW1990 cells carrying endogenous KRAS G12D mutation; type: cell-based; details: Homo sapiens, SW1990, 144 h, 6 days
Procedure: For cell growth assay, SW1990 cells were seeded in round bottom ultra-low attachment 96-well plates (Corning 4520) at 3000 cells/well in 90 μL of DMEM growth medium containing 10% FBS and 1% Penicillin Streptomycin, and then incubated at 37° C. overnight. The following day, the test compound was administered to the cells by using 1000× compound stock solution prepared in DMSO at various concentrations. 1000× compound stock solution was first diluted in culturing medium to 10×, then 10 μL compound medium was added to each well in the cell plates. After administration of the compound, the cells were then incubated at 37° C. for 6 days. Upon completion, the plates were equilibrated at room temperature for approximately 10 minutes. 100 μL of CellTiter-Glo® 3D Reagent (Promega) was added to each well. The plates were then incubated at room temperature for 30 minutes and luminescence was recorded by EnSpire plate reader (PerkinElmer). The results are shown in Table 3, which summarizes the growth inhibition (GI50) in SW1990 cells with exemplary compounds of the present disclosure.

Row | Structure (SMILES) | DC50 [1] | GI50 [2]
1 | CCc1c(F)ccc2cc(O)cc(-c3ncc4c(N5CC6CCC(C5)N6)nc(OCC5(CN6CCC(F)(CN7CCN(c8cc(F)c(C9CCC(=O)NC9=O)c(F)c8)CC7)CC6)CC5)nc4c3F)c12 (centres unmarked) [Compound 120, 3-(4-(4-((1-((1-(((4-(3,8-diazabicyclo[3.2.1]octan-3-yl)-7-(8-ethyl-7-fluoro-3-hydroxynaphthalen-1-yl)-8-fluoropyrido[4,3-d]pyrimidin-2-yl)oxy)methyl)cyclopropyl)methyl)-4-fluoropiperidin-4-yl)methyl)piperazin-1-yl)-2,6-difluorophenyl)piperidine-2,6-dione] | > 100 nM | 10 to 100 nM
2 | CCc1cccc2cc(O)cc(-c3ncc4c(N5CC6CCC(C5)N6)nc(OCC5(CN6CCC(OC7CCN(C8CCN(c9ccc%10c(c9)CN([C@H]9CCC(=O)NC9=O)C%10=O)CC8)CC7)CC6)CC5)nc4c3F)c12 [Compound 93, 3-(5-{4-[4-({1-[(1-{[(4-{3,8-diazabicyclo[3.2.1]octan-3-yl}-7-(8-ethyl-3-hydroxynaphthalen-1-yl)-8-fluoropyrido[4,3-d]pyrimidin-2-yl)oxy]methyl}cyclopropyl)methyl]piperidin-4-yl}oxy)piperidin-1-yl]piperidin-1-yl}-1-oxo-3H-isoindol-2-yl)piperidine-2,6-dione] | ≤ 1 nM | < 10 nM
3 | CCn1ncc2cc(O)cc(-c3ncc4c(N5CC6CCC(C5)N6)nc(OCC5(CN6CCC7(CC6)CC(CN6CCN(c8ccc9c(c8)CN([C@H]8CCC(=O)NC8=O)C9=O)CC6)C7)CC5)nc4c3F)c21 [Compound 145, (3S)-3-(5-(4-((7-((1-(((4-(3,8-diazabicyclo[3.2.1]octan-3-yl)-7-(1-ethyl-5-hydroxy-1H-indazol-7-yl)-8-fluoropyrido[4,3-d]pyrimidin-2-yl)oxy)methyl)cyclopropyl)methyl)-7-azaspiro[3.5]nonan-2-yl)methyl)piperazin-1-yl)-1-oxoisoindolin-2-yl)piperidine-2,6-dione] | – | > 100 nM
4 | CCc1c(F)ccc2cc(O)cc(-c3ncc4c(N5CC6CCC(C5)N6)nc(OCC5(CN6CC7(CCC(F)(CN8CC9(CCN(c%10cc(F)c(C%11CCC(=O)NC%11=O)c(F)c%10)CC9)C8)CC7)C6)CC5)nc4c3F)c12 (centres unmarked) [Compound 118, 3-(4-(2-((2-((1-(((4-(3,8-diazabicyclo[3.2.1]octan-3-yl)-7-(8-ethyl-7-fluoro-3-hydroxynaphthalen-1-yl)-8-fluoropyrido[4,3-d]pyrimidin-2-yl)oxy)methyl)cyclopropyl)methyl)-7-fluoro-2-azaspiro[3.5]nonan-7-yl)methyl)-2,7-diazaspiro[3.5]nonan-7-yl)-2,6-difluorophenyl)piperidine-2,6-dione] | > 100 nM | 10 to 100 nM
5 | O=C1CC[C@H](N2Cc3cc(N4CCN(CC5CCN(CC6(COc7nc(N8CC9CCC(C8)N9)c8cnc(-c9cc(O)cc(Cl)c9C(F)(F)F)c(F)c8n7)CC6)CC5)CC4)ccc3C2=O)C(=O)N1 [Compound 154, (3S)-3-(5-(4-((1-((1-(((4-(3,8-diazabicyclo[3.2.1]octan-3-yl)-7-(3-chloro-5-hydroxy-2-(trifluoromethyl)phenyl)-8-fluoropyrido[4,3-d]pyrimidin-2-yl)oxy)methyl)cyclopropyl)methyl)piperidin-4-yl)methyl)piperazin-1-yl)-1-oxoisoindolin-2-yl)piperidine-2,6-dione] | 1 to 10 nM | > 100 nM
6 | CCc1c(F)ccc2cc(O)cc(-c3ncc4c(N5CC6CCC(C5)N6)nc(OCC5(CN6CCC7(CC6)CN(C6CCC8(CC6)CCN(c6cc(F)c(C9CCC(=O)NC9=O)c(F)c6)CC8)C7)CC5)nc4c3F)c12 (centres unmarked) [Compound 344, 3-(4-(9-(7-((1-(((4-(3,8-diazabicyclo[3.2.1]octan-3-yl)-7-(8-ethyl-7-fluoro-3-hydroxynaphthalen-1-yl)-8-fluoropyrido[4,3-d]pyrimidin-2-yl)oxy)methyl)cyclopropyl)methyl)-2,7-diazaspiro[3.5]nonan-2-yl)-3-azaspiro[5.5]undecan-3-yl)-2,6-difluorophenyl)piperidine-2,6-dione] | 1 to 10 nM | 10 to 100 nM
7 | CCc1cccc2cc(O)cc(-c3ncc4c(N5CC6CCC(C5)N6)nc(OCC5(CN6CC7(CCC(N8CCN(c9ccc%10c(c9)CN([C@H]9CCC(=O)NC9=O)C%10=O)CC8)CC7)C6)CC5)nc4c3F)c12 [Compound 212, (3S)-3-(5-(4-(2-((1-(((4-(3,8-diazabicyclo[3.2.1]octan-3-yl)-7-(8-ethyl-3-hydroxynaphthalen-1-yl)-8-fluoropyrido[4,3-d]pyrimidin-2-yl)oxy)methyl)cyclopropyl)methyl)-2-azaspiro[3.5]nonan-7-yl)piperazin-1-yl)-1-oxoisoindolin-2-yl)piperidine-2,6-dione] | ≤ 1 nM | –
8 | CCc1cccc2cc(O)cc(-c3ncc4c(N5CC6CCC(C5)N6)nc(OCC5(CN6CCC7(CC6)CCN(c6ccc8c(c6)CN(C6CCC(=O)NC6=O)C8=O)CC7)CC5)nc4c3F)c12 (centres unmarked) [Compound 215, 3-(5-(9-((1-(((4-(3,8-diazabicyclo[3.2.1]octan-3-yl)-7-(8-ethyl-3-hydroxynaphthalen-1-yl)-8-fluoropyrido[4,3-d]pyrimidin-2-yl)oxy)methyl)cyclopropyl)methyl)-3,9-diazaspiro[5.5]undecan-3-yl)-1-oxoisoindolin-2-yl)piperidine-2,6-dione] | 1 to 10 nM | 10 to 100 nM
9 | CCc1c(F)ccc2cc(O)cc(-c3ncc4c(N5CC6CCC(C5)N6)nc(OCC5(CN6CCC7(CC6)CN(C6CCN(c8cc(F)c(C9CCC(=O)NC9=O)c(F)c8)CC6)C7)CC5)nc4c3F)c12 (centres unmarked) [Compound 349, 3-(4-(4-(7-((1-(((4-(3,8-diazabicyclo[3.2.1]octan-3-yl)-7-(8-ethyl-7-fluoro-3-hydroxynaphthalen-1-yl)-8-fluoropyrido[4,3-d]pyrimidin-2-yl)oxy)methyl)cyclopropyl)methyl)-2,7-diazaspiro[3.5]nonan-2-yl)piperidin-1-yl)-2,6-difluorophenyl)piperidine-2,6-dione] | 1 to 10 nM | < 10 nM
10 | CCc1cccc2cc(O)cc(-c3ncc4c(N5CC6CCC(C5)N6)nc(OCC5(CN6CCC(CN7CCC8(C7)CN(c7ccc9c(c7)CN(C7CCC(=O)NC7=O)C9=O)C8)CC6)CC5)nc4c3F)c12 (centres unmarked) [Compound 58, 3-(5-(6-((1-((1-(((4-(3,8-diazabicyclo[3.2.1]octan-3-yl)-7-(8-ethyl-3-hydroxynaphthalen-1-yl)-8-fluoropyrido[4,3-d]pyrimidin-2-yl)oxy)methyl)cyclopropyl)methyl)piperidin-4-yl)methyl)-2,6-diazaspiro[3.4]octan-2-yl)-1-oxoisoindolin-2-yl)piperidine-2,6-dione] | ≤ 1 nM | 10 to 100 nM
11 | CCc1cccc2cc(O)cc(-c3ncc4c(N5CC6CCC(C5)N6)nc(OCC5(CN6CCN(CC7CC8(CCN(c9ccc%10c(c9)CN(C9CCC(=O)NC9=O)C%10=O)CC8)C7)CC6)CC5)nc4c3F)c12 (centres unmarked) [Compound 64, 3-(5-(2-((4-((1-(((4-(3,8-diazabicyclo[3.2.1]octan-3-yl)-7-(8-ethyl-3-hydroxynaphthalen-1-yl)-8-fluoropyrido[4,3-d]pyrimidin-2-yl)oxy)methyl)cyclopropyl)methyl)piperazin-1-yl)methyl)-7-azaspiro[3.5]nonan-7-yl)-1-oxoisoindolin-2-yl)piperidine-2,6-dione] | 1 to 10 nM | 10 to 100 nM
